In US20050032687A1, “Method and composition for the modulation of angiogenesis” (priority 2001, published 2005):
“Also recorded” adds a separate entry of the source.

Experiments:
[1] = test system: bovine aortic endothelial cells (BAEC); assay: Cell death by lactate dehydrogenase activity measured in the media; assay type: cell-based; conditions: DHEA-treated BAEC
From the text: (§1) To examine further the role of G6PD in VEGF-mediated cell proliferation, we next inhibited G6PD activity by exposing BAEC to dehydroepiandrosterone (DHEA) ([…]), a noncompetitive inhibitor of G6PD, for 24 hr.

[2] = test system: bovine aortic endothelial cells (BAEC); assay: Cellular NADPH levels in BAEC; assay type: cell-based; conditions: for cellular NADPH levels: VEGF 100 ng/ml
From the text: (§2) To investigate the role of G6PD in vascular endothelial cell proliferation, we initially sought to determine if growth factors involved in angiogenesis, such as vascular endothelial growth factor (VEGF), influenced G6PD activity.
(§3) We have recently constructed an adenoviral vector incorporating murine G6PD cDNA (93% homologous to the rat cDNA).

[3] = test system: bovine aortic endothelial cells (BAEC); assay: Cell-wounding migration assay; assay type: cell-based; conditions: VEGF 100 ng/ml, serum-free media, 18 hr
Method: FIGS. 3A-D show G6PD and endothelial cell migration.
We next examined the role of G6PD on VEGF-stimulated endothelial cell migration. In a cell-wounding migration assay, BAEC were grown to confluence on a P100 culture dish. Using a sterile scalpel, a vertical incision was made in the midline of the dish, and under microscopic guidance, BAEC were removed from one-half of the plate. BAEC were then incubated with VEGF (100 ng/ml) in serum-free media, and cell migration across the midline was observed after 18 hr and quantified by the average cell count in 5 high powered fields.

[4] = test system: bovine aortic endothelial cells (BAEC); assay: Endothelial cell proliferation by [3H]-thymidine incorporation; assay type: cell-based
Method: FIGS. 1A and 1B show G6PD and endothelial cell proliferation. BAEC were treated with DHEA to decrease G6PD activity and stimulated with VEGF (100 ng/ml) for 8 hr (1A). Cell proliferation is measured by [^3H]-Thymidine incorporation. G6PD expression was inhibited by trans(in)fection with an antisense oligonucleotide to G6PD mRNA (AS) or a scrambled control (SS) and proliferation was determined by [^3H]-Thymidine incorporation (1B). Results are expressed as counts per minute (cpm) and data presented as mean±SEM. *p<0.01 vs.−VEGF.**p<0.01 vs.−DHEA or −SS.
as §1
(§4) As a control, we used a phosphorothioate oligodeoxynucleotide with a scrambled sequence (SS).
as §3

[5] = test system: bovine aortic endothelial cells (BAEC); assay: Cell migration in modified Boyden chamber; assay type: cell-based; conditions: for cell migration (fluorescence), result in words: BAEC; for cell migration: VEGF-stimulated BAEC (100 ng/ml, 18 hr) with eNOS inhibitor (L-NAME 1 mmol/L, L-NMMA 100 μmol/L)
Method: Fluorescently labeled, BAEC were stimulated with VEGF (100ng/ml) for 18 hr and cell migration was assessed in a modified Boyden Chamber.
BAEC were fluorescently labeled with calcein AM (Molecular Probes, Inc.) and 0.4×10^3 cells were loaded to the top of a pre-fitted membrane filter that fit a specially designed 96-well microplate. The microplate wells were loaded with serum-free media and VEGF (100 ng/ml) for 18 hr., and cells were allowed to migrate across the membrane. The plate was then analyzed using a fluorescent microplate reader.

G6PD [6] = assay: G6PD activity in BAEC; assay type: cell-based, bovine; conditions: for G6PD activity: VEGF 100 ng/ml
From the text: as §2, §1, §4, §3

[7] = test system: bovine aortic endothelial cells (BAEC); assay: Endothelial cell tube formation on Matrigel; assay type: cell-based; conditions: VEGF 100 ng/ml for 12 hr
Method: FIGS. 5A and B show G6PD and Tube Formation. BAEC were transfected with an antisense oligodecocynucleotide to G6PD and mRNA (AS) or a scrambled control (SS) and plated on Matrigel. Cells were then stimulated with VEGF and tube formation was assessed visually (5A) and quantified using area analysis with background substration (5B). Results of area analysis are the average of 10 high-powered fields.
FIGS. 6A and B show G6PD overexpression and tube formation. G6PD expression was increased via adenoviral-mediated gene transfer. BAEC were then placed on Matrigel and stimulated with VEGF ([…]).
To examine the role of G6PD in endothelial cell tube formation in vitro, we plated BAEC on Matrigel and stimulated cells with VEGF (100ng/ml) for 12 hr. Results were quantified using NIH Image to determine area of tube formation. Under basal conditions, BAEC plated on Matrigel formed tubes and networks that were increased following exposure to VEGF.
In order to confirm that G6PD importantly modulates tube formation in vitro, we next increased G6PD expression via adenoviral-mediated gene transfer and examined tube formation.

[8] = test system: C3H wild-type (WT) and hemizygous male (HEMI) mice; assay: In vivo Matrigel plug migration assay; design: species or system mouse
Method: To examine the effect of G6PD activity on angiogenesis in vivo, we performed an in vivo Matrigel migration assay in C3H wild-type (WT) and hemizygous male (HEMI) mice. Matrigel, derived from mouse basement membrane proteins, was implanted subcutaneously in the groin area to form a Matrigel “plug”. Each mouse was injected on one side with either Matrigel alone, or Matrigel supplemented with VEGF (100 ng/ml). In this manner, each animal could serve as its own control. Plugs were left in place for 14 days. Following this time, the animals were euthanized, plugs excised with surrounding tissue for orientation, and embedded and sectioned in paraffin. Sections were then stained with Hematoxylin & Eosin (H&E). Images were captured digitally and assessed for cell counts. For orientation purposes, a representative Matrigel plug from a WT mouse at 4× (right) and 20× (left) magnification is shown below (FIG. 9).
These findings were quantified by counting cells in 10 randomly selected high-power (20×) fields per image in 3 successive images. […] These findings confirm that G6PD modulates angiogenesis in vivo.
We next wanted to determine if we could “rescue” the G6PD-deficient phenotype using gene transfer to increase local G6PD expression. We treated Matrigel with an adenoviral vector encoding for G6PD implanted plugs in HEMI mice for 7 days in the presence or absence of VEGF (FIG. 13).

G6PD [9] = assay: G6PD expression by Western analysis in BAEC; assay type: cell-based, bovine
From the text: as §2, §4, §3

[10] = DHEA-treated or AS transfection for 5 hours

## C[C@]12CC[C@H](O)CC1=CC[C@@H]1[C@@H]2CC[C@]2(C)C(=O)CC[C@@H]12 [DHEA, dehydroepiandrosterone]
[1]
  cell death by lactate dehydrogenase activity in the media: not the result of increased cell death
[2]; [10]
  decrease in the level of cellular NADPH: 30%
[3]
  cell migration across the midline, average cell count: 10±2 cells/hpf
[4]; basal conditions (DHEA 100 pmol/L for 24 hr; AS or SS transfected)
  [3H]-thymidine incorporation: 9,967±1,531 cpm
[4]; following stimulation with VEGF 100 ng/ml for 8 hr
  [3H]-thymidine incorporation: 8,902±1,451 cpm
[5]; VEGF 100 ng/ml, 18 hr
  cell migration (fluorescence), result in words: abrogated; also recorded: VEGF did not significantly increase migration
G6PD [6]; [10]
  reduction in G6PD activity: 60%

## COC(=O)[C@@H](N)CCCNC(=N)N[N+](=O)[O-] [L-NAME]
[5]
  cell migration: 23.6±17 units

## CNC(=N)NCCC[C@H](N)C(=O)O [L-NMMA]
[5]
  cell migration: 21.6±7.3 units

## VEGF
[7]
  tube formation / vessel area: increased
[2]; 4 hr
  cellular NADPH levels: 0.5±0.04 mmoles/mg protein
[2]; 24 hr
  cellular NADPH levels: 0.4±0.08 mmoles/mg protein
[8]; HEMI mice, 7 days
  cell migration into the Matrigel plug: not increased significantly
[8]; HEMI mice, 14 days, Matrigel with VEGF 100 ng/ml
  cell migration into the Matrigel plug: did not significantly improve this response
[8]; WT mice, 14 days, Matrigel with VEGF 100 ng/ml
  cell migration into the Matrigel plug: increased the number of cells migrating into the Matrigel plug
[3]
  cell migration across the midline, average cell count: 28±6 cells/hpf
[5]; BAEC with normal G6PD activity, VEGF 100 ng/ml, 18 hr
  cell migration as fluorescence: 55.3±6.6 units
[5]; VEGF 100 ng/ml, 18 hr
  cell migration (fluorescence), result in words: significant increase in fluorescence
G6PD [6]; 24 hr
  G6PD activity: 87±19 units/6 min/mg protein
G6PD [6]; after 4 hr
  G6PD activity: 182.7±37 units/6 min/mg protein
G6PD [9]
  G6PD expression: did not increase G6PD expression
